Data from US20210009564A1, “CALPAIN MODULATORS AND THERAPEUTIC USES THEREOF” (BLADE THERAPERTICS, INC., priority 2018, published 2021).

Legend:
[1] = target: T1, Human Calpain 1/NS1 (Homo sapiens, UniProt P07384); assay: Calpain inhibition, continuous fluorescence (FRET substrate) assay, calpain 1; type: biochemical; conditions: SensoLyte 520 FRET substrate, 25C
T1 sequence (P07384 1-714): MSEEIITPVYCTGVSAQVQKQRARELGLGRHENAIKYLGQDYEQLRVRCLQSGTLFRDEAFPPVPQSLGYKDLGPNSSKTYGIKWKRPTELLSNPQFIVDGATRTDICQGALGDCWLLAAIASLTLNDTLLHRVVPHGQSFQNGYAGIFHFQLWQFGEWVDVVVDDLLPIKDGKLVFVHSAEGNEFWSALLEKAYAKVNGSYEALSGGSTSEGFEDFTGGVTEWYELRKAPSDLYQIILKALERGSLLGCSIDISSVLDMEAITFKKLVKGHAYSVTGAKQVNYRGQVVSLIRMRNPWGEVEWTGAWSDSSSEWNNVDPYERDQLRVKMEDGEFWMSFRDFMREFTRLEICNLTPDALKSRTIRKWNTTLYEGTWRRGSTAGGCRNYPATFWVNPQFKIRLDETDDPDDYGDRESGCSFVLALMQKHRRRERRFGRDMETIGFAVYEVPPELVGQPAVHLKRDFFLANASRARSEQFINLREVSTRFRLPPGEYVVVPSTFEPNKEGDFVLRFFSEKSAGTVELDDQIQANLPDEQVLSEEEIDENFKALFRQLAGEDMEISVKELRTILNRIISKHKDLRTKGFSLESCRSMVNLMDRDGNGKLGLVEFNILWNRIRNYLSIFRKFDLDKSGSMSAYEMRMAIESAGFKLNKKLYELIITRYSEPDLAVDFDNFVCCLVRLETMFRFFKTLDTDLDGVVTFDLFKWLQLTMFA
T1 sequence (P04632 1-268 partner): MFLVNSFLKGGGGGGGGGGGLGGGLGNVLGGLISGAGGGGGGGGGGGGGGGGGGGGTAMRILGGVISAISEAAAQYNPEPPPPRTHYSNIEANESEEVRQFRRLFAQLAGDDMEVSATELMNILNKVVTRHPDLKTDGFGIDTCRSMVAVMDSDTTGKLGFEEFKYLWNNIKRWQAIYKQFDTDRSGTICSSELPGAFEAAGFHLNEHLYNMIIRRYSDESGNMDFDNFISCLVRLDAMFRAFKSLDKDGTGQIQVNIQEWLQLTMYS
Protocol: (§1) Calpain 1, 2, and 9 activity and inhibition thereof was assessed by means of a continuous fluorescence assay. The SensoLyte 520 Calpain substrate (Anaspec Inc) was optimized for detecting calpain activity. This substrate contains an internally quenched 5-FAM/QXLTM 520 FRET pair. Calpains 1, 2, and 9 cleave the FRET substrate into two separate fragments resulting in an increase of 5-FAM fluorescence that is proportional to calpain activity Assays were typically setup in black 384-well plates using automated liquid handling as follows. Calpain assay base buffer typically contains 50 mM Tris, pH 7.5, 100 mM NaCl and 1 mM DTT. Inhibitors were serially diluted in DMSO and used to setup 2× mixtures with calpains in the aforementioned buffer. After incubation at ambient temperature (25C), the reaction was initiated by adding a 2× mix of the fluorescent peptide substrate and CaCl2) (required for in-situ calpain activation) in the same buffer. Reaction progress curve data were typically collected for 10 min using excitation/emission wavelengths of 490 nm/520 nm on SpectraMax i3× or the FLIPR-Tetra plate readers (Molecular Devices Inc). Reaction rates were calculated from progress curve slopes typically over 1-5 min. Dose response curves (rate vs. log inhibitor concentration) were typically fit to a 4-parameter logistic function to extract IC50 values.

[2] = target: T2, Human Calpain 2/NS1 (Homo sapiens, UniProt P17655); assay: Calpain inhibition, continuous fluorescence (FRET substrate) assay, calpain 2; type: biochemical; conditions: SensoLyte 520 FRET substrate, 25C
T2 sequence (P17655 1-700): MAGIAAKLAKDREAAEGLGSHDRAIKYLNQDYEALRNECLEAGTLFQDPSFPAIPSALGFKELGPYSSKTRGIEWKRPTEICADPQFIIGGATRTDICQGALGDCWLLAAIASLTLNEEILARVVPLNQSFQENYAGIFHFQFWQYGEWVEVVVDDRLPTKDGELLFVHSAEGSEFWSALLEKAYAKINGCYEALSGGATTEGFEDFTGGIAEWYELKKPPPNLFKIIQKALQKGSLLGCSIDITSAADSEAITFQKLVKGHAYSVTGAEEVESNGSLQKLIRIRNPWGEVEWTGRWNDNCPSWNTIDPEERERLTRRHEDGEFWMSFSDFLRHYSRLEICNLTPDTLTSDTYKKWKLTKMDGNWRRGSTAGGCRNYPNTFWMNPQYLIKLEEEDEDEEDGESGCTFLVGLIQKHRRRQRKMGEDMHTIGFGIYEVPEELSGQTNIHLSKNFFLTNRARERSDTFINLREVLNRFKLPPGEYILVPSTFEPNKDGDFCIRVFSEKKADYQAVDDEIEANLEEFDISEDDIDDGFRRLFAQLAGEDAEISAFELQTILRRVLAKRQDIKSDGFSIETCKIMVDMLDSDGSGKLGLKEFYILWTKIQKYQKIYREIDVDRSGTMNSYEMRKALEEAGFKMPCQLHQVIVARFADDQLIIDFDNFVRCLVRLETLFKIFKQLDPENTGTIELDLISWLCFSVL
T2 sequence (P04632 1-268 partner): T1 sequence (P04632 1-268 partner)
Protocol: as §1

[3] = target: T3, Human Calpain 9/NS1 (Homo sapiens, UniProt O14815); assay: Calpain inhibition, continuous fluorescence (FRET substrate) assay, calpain 9; type: biochemical; conditions: SensoLyte 520 FRET substrate, 25C
T3 sequence (O14815 1-690): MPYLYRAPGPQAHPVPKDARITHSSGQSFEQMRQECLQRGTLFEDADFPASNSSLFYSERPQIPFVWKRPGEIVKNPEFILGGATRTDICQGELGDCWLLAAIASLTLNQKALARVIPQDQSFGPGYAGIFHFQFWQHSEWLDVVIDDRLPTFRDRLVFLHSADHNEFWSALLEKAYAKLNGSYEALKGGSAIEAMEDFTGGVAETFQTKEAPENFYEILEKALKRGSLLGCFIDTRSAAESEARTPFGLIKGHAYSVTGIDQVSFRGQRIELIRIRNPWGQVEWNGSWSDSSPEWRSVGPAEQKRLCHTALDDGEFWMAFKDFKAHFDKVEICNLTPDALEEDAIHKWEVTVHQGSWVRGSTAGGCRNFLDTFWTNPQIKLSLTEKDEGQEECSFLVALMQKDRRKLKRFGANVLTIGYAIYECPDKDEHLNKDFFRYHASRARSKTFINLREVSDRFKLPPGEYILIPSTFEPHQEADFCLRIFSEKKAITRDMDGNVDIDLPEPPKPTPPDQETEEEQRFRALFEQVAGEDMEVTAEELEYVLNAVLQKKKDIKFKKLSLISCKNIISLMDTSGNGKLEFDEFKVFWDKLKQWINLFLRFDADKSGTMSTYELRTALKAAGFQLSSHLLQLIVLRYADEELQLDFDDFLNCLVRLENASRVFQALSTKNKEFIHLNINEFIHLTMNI
T3 sequence (P04632 1-268 partner): T1 sequence (P04632 1-268 partner)
Protocol: as §1

[4] = system: Calpain activity in SH-SY5Y cells; assay: SH-SY5Y spectrin breakdown product (SBDP-150) western blot assay; type: cell-based; conditions: Homo sapiens, read-out: SH-SY5Y Spectrin IC50
[5] = system: Calpain activity in SH-SY5Y cells; assay: SH-SY5Y Suc-LLVY-AMC fluorescence assay; type: cell-based; conditions: Homo sapiens, read-out: SH-SY5Y + AMC IC50
[6] = SH-SY5Y cells, 25 uM A23187, SBDP-150 western blot
[7] = SH-SY5Y cells, 100 uM Suc-LLVY-AMC

Compound | IC50 [1] | IC50 [2] | IC50 [3] | IC50 [4, 6] | IC50 [5, 7] | IC50 ([4]; SH-SY5Y) | IC50 ([5]; SH-SY5Y)
Cn1cc(C(=O)NC(Cc2ccccc2)C(=O)C(N)=O)c(-c2cccc3cccnc23)n1 (stereo not shown) [Compound 14] | < 3 µM | < 3 µM | < 3 µM | > 25 µM | > 25 µM | – | –
Cn1cc(C(=O)NC(Cc2ccccc2)C(=O)C(N)=O)c(-c2cc(Cl)oc2Cl)n1 (stereo not shown) [Compound 15, N-(4-AMINO-3,4-DIOXO-1-PHENYLBUTAN-2-YL)-3-(2,5-DICHLOROFURAN-3-YL)-1-METHYL-1H-PYRAZOLE-4-CARBOXAMIDE] | < 3 µM | < 3 µM | < 3 µM | 10 to 25 µM | < 10 µM | – | –
Cn1cc(C(=O)NC(Cc2ccccc2)C(=O)C(N)=O)c(-c2cccc3[nH]ncc23)n1 (stereo not shown) [Compound 16, N-(4-AMINO-3,4-DIOXO-1-PHENYLBUTAN-2-YL)-3-(1H-INDAZOL-4-YL)-1-METHYL-1H-PYRAZOLE-4-CARBOXAMIDE] | < 3 µM | < 3 µM | < 3 µM | 10 to 25 µM | 10 to 25 µM | – | –
CNC(=O)c1cccc(-c2nn(C)cc2C(=O)NC(Cc2ccccc2)C(=O)C(N)=O)c1 (stereo not shown) [Compound 17] | < 3 µM | < 3 µM | < 3 µM | – | – | > 25 µM | 10 to 25 µM
NC(=O)C(=O)C(Cc1ccccc1)NC(=O)c1cn(C(F)F)nc1-c1cccc2cccnc12 (stereo not shown) [Compound 18, N-(4-AMINO-3,4-DIOXO-1-PHENYLBUTAN-2-YL)-1-(DIFLUOROMETHYL)-3-(QUINOLIN-8-YL)-1H-PYRAZOLE-4-CARBOXAMIDE] | < 3 µM | < 3 µM | < 3 µM | > 25 µM | < 10 µM | – | –
Cn1cc(C(=O)NC(Cc2ccccc2)C(=O)C(N)=O)c(-c2ccoc2Cl)n1 (stereo not shown) [Compound 19, N-(4-AMINO-3,4-DIOXO-1-PHENYLBUTAN-2-YL)-3-(2-CHLOROFURAN-3-YL)-1-METHYL-1H-PYRAZOLE-4-CARBOXAMIDE] | < 3 µM | < 3 µM | < 3 µM | > 25 µM | < 10 µM | – | –
NC(=O)C(=O)C(Cc1ccccc1)NC(=O)c1cn(C(F)F)nc1-c1ccoc1Cl (stereo not shown) [Compound 20, N-(4-AMINO-3,4-DIOXO-1-PHENYLBUTAN-2-YL)-3-(2-CHLOROFURAN-3-YL)-1-(DIFLUOROMETHYL)-1H-PYRAZOLE-4-CARBOXAMIDE] | < 3 µM | < 3 µM | < 3 µM | < 10 µM | < 10 µM | – | –
NC(=O)C(=O)C(Cc1ccccc1)NC(=O)c1cn(C(F)F)nc1-c1coc(Cl)c1 (stereo not shown) [Compound 21, N-(4-AMINO-3,4-DIOXO-1-PHENYLBUTAN-2-YL)-3-(5-CHLOROFURAN-3-YL)-1-(DIFLUOROMETHYL)-1H-PYRAZOLE-4-CARBOXAMIDE] | < 3 µM | < 3 µM | < 3 µM | < 10 µM | < 10 µM | – | –
NC(=O)C(=O)C(Cc1ccccc1)NC(=O)c1cn(C(F)F)nc1-c1cccc2ccncc12 (stereo not shown) [Compound 22, N-(4-AMINO-3,4-DIOXO-1-PHENYLBUTAN-2-YL)-1-(DIFLUOROMETHYL)-3-(ISOQUINOLIN-8-YL)-1H-PYRAZOLE-4-CARBOXAMIDE] | < 3 µM | < 3 µM | < 3 µM | < 10 µM | < 10 µM | – | –
Cc1cc(-c2nsnc2C(=O)NC(Cc2ccccc2)C(=O)C(N)=O)c(C)o1 (stereo not shown) [Compound 23, N-(4-AMINO-3,4-DIOXO-1-PHENYLBUTAN-2-YL)-4-(2,5-DIMETHYLFURAN-3-YL)-1,2,5-THIADIAZOLE-3-CARBOXAMIDE] | < 3 µM | < 3 µM | < 3 µM | < 10 µM | < 10 µM | – | –
Cc1cc(-c2nn(C(F)F)cc2C(=O)NC(Cc2ccccc2)C(=O)C(N)=O)c(C)o1 (stereo not shown) [Compound 24, N-(4-AMINO-3,4-DIOXO-1-PHENYLBUTAN-2-YL)-1-(DIFLUOROMETHYL)-3-(2,5-DIMETHYLFURAN-3-YL)-1H-PYRAZOLE-4-CARBOXAMIDE] | < 3 µM | < 3 µM | < 3 µM | 10 to 25 µM | < 10 µM | – | –
Cc1occc1-c1nn(C(F)F)cc1C(=O)NC(Cc1ccccc1)C(=O)C(N)=O (stereo not shown) [Compound 26, N-(4-AMINO-3,4-DIOXO-1-PHENYLBUTAN-2-YL)-1-(DIFLUOROMETHYL)-3-(2-METHYLFURAN-3-YL)-1H-PYRAZOLE-4-CARBOXAMIDE] | < 3 µM | < 3 µM | < 3 µM | < 10 µM | < 10 µM | – | –
Cc1cc(C(=O)NC(Cc2ccccc2)C(=O)C(N)=O)nn1-c1ncc2ccccc2n1 (stereo not shown) [Compound 27, N-(4-AMINO-3,4-DIOXO-1-PHENYLBUTAN-2-YL)-5-METHYL-1-(QUINAZOLIN-2-YL)-1H-PYRAZOLE-3-CARBOXAMIDE] | > 10 µM | 3 to 10 µM | 3 to 10 µM | > 25 µM | < 10 µM | – | –
Cc1occc1-c1nn(C)cc1C(=O)NC(Cc1ccccc1)C(=O)C(N)=O (stereo not shown) [Compound 28, N-(4-AMINO-3,4-DIOXO-1-PHENYLBUTAN-2-YL)-1-METHYL-3-(2-METHYLFURAN-3-YL)-1H-PYRAZOLE-4-CARBOXAMIDE] | < 3 µM | < 3 µM | < 3 µM | > 25 µM | < 10 µM | – | –
